Literature values as cited in patent publication US12606719B2, “Methods and compositions comprising biodegradable cyanoacrylates” (FEMASYS, INC., priority 2017, dated 2026).

Conditions: versus cyanoacrylates that degrade by chain scission

hydrophilicity: more hydrophilic
Substance: methoxypropyl cyanoacrylate
